In US20230399358A1, “IMMUNOGLOBULIN PURIFICATION PEPTIDES AND THEIR USE” (North Carolina State University, priority 2019, published 2023):

System: human polyclonal IgG in CHO-S cell culture fluid
Assay: Static purification of IgG from CHO cell culture supernatant on peptide-Toyopearl resins, SDS-PAGE densitometry
Conditions: Gel B

Question: For WQRHGI, which “% Purity (IgG over total proteins)” value (lane FT (flow-through)) is on record?
Answer: 52.71%

Question: And the “% Purity (IgG over total eluted proteins)” value (lane R (pH 2.5))?
Answer: 78.79%
